Source: article PMC11094307, “Marine-derived EGFR inhibitors: novel compounds targeting breast cancer growth and drug resistance” (Frontiers in Pharmacology, 2024)

Legend:
BAX = experiment: Western blotting of MCF-7 lysates, BAX; type: cell-based, human; details: for BAX WB Normalized: control 0 µM 0.795076455
Description: (§1) MCF-7 cell lysates were prepared by rinsing the cells twice with PBS and then solubilizing them in lysis buffer (NP40 supplemented with protease and phosphatase inhibitor cocktails) on ice. The solubilization process involved rotating the lysis buffer/cell mixture end over end for 10 min at 4°C. After centrifugation for 10 min at 4°C to remove insoluble material, the protein concentration of the solubilized protein was determined using a BCA assay. Subsequently, samples were diluted in SDS sample buffer. Equivalent amounts of protein were separated by SDS-PAGE, transferred to PVDF membranes, and probed with the indicated antibody. Prior to incubation with primary antibodies overnight at 4°C, the membranes were blocked with 5% skim milk-TBST. The antibodies and their sources were as follows: PARP1 (1:500, Santa Cruz Biotechnology), Cleaved Caspase-3 (1:1000, Cell Signaling Technology), BAX (1:500, Santa Cruz Biotechnology), BCL-2 (1:500, Santa Cruz Biotechnology), and GAPDH (1:500, Santa Cruz Biotechnology). Following incubation with horseradish peroxidase-conjugated goat anti-mouse or goat anti-rabbit secondary antibody (Santa Cruz Biotechnology), the detected proteins were visualized using the Pierce Enhanced Chemiluminescence (ECL) reagent and a UV Products imaging system. Band intensities were quantified using the National Institutes of Health ImageJ software.

[1] = target: EGFR intracellular kinase domain (Homo sapiens, UniProt P00533); experiment: SPR binding (Biacore 8K); design: the intracellular tyrosine kinase (TK) domain of EGFR, tagged with GST; purchased Sinobiological, China; details: without ATP
Text: The extracellular ligand-binding domain of EGFR, tagged with His, and the intracellular tyrosine kinase (TK) domain of EGFR, tagged with GST, were acquired from Sinobiological, China. Kinase assay systems for both wild-type EGFR and its mutants—T790M, L858R, and the dual L858R/T790M—were procured from Promega Corporation, USA. Cell lines including MCF-7, A549, A431, H1299, HL-60, and MCF-10A were obtained from the China Infrastructure Cell Line Resources.
The binding affinities of compounds towards EGFR extracellular ligand binding domain and EGFR intracellular kinase domain were assayed using the SPR-based Biacore 8K instrument (Cytiva). Considering the purchased EGFR was fused with GST tag, GST alone was also immobilized on the chip to do the binding measurement. All the proteins were respectively immobilized on a CM5 sensor chip by using standard amine-coupling at 25°C with running buffer HEPES-P (20 mM HEPES buffer, […], 0.05% surfactant P20, pH 7.4). A reference channel was only activated and blocked to eliminate compound unspecific binding to the surface of the chip. The immobilization level of EGFR extracellular ligand binding domain, EGFR intracellular kinase domain and GST were all about 10,000 RU. […] Extra wash with 50% DMSO was added to remove the last remaining sample in the pipeline.

Cleaved Caspase-3 = experiment: Western blotting of MCF-7 lysates, cleaved caspase-3; type: cell-based, human; details: for Cleaved Caspase-3 WB Normalized: control 0 µM 0.213235397
Description: as §1

MCF-7 cells = experiment: Cell cycle analysis by flow cytometry (PI); type: cell-based, human; details: 20 μM, 24 h
Description: After 24 h of treatment with various concentrations of compounds, MCF-7 cells were harvested and washed twice with phosphate-buffered saline (PBS). For cell cycle analysis, the cells were initially fixed with 70% ethanol at 4°C overnight and subsequently washed with PBS. The fixed cells were then resuspended in 1× PBS containing 0.5% Triton X-100, 50 μg/mL propidium iodide (PI), and 50 μg/mL DNase-free RNase A, and incubated at 37°C for 30 min in darkness. Following incubation, cell cycle distribution was assessed using a BD FACSCanto™ flow cytometer.

EGFR = target: T1, EGFR (Homo sapiens, UniProt P00533); experiment: CETSA in MCF-7 cells; type: cell-based; details: for CETSA WB Normalized (Figure 3F): control 0 µM 0.614197892
T1 construct: endogenous in cells; host or cells: MCF-7
Description: In the CETSA, MCF-7 cells were treated with varying concentrations of Tandyukisin (5, 10, 20 µM) or a control solution of 0.2% DMSO for 24 h. Following treatment, cells were harvested and washed with PBS to eliminate any residual drug, then an equal number of cells were allocated into 0.2 mL PCR tubes. These cells were resuspended in 100 µL PBS supplemented with a complete protease inhibitor cocktail and subjected to a heating step at […] for 3 min. Post-heating, the cells underwent lysis through three cycles of freeze-thaw using liquid nitrogen, followed by centrifugation at 12,000g for 20 min at 4°C to separate the lysate. The clarified supernatant from each tube was then carefully transferred to fresh tubes for Western blotting.
To confirm Tandyukisin directly bound EGFR in cells, CETSA was conducted. Currently, CETSA is widely used in drug target discovery assay and is based on the thermal stability changes after drugs bind to their targets ([Martinez Molina et al., 2013]; [Jafari et al., 2014]). After treatment with Tandyukisin at 5, 10, 20 μM for 24 h, the multiple aliquots of the cell suspension were heated at 55°C. The heated cells were subsequently lysed and centrifuged to separate soluble fractions from precipitated denatured EGFR. After thermal denaturation, EGFR in the soluble fraction was examined by Western blotting.

A431 cells = experiment: MTT assay, A431; type: cell-based, human; details: A431 (high EGFR-expressing), 10 μM
Description: The cell lines MCF-7 and A431 were cultured in Dulbecco’s Modified Eagle’s Medium (DMEM, Gibco, USA), while HL-60, H1299, and A549 cells were maintained in RPMI-1640 medium (Gibco, USA). Both mediums were enriched with 10% fetal bovine serum and 1% penicillin/streptomycin. […] All cell cultures were incubated at 37°C in an atmosphere containing 5% CO2.
Cells in the exponential growth phase were seeded into 96-well plates and allowed to adhere overnight. Subsequently, they were treated in triplicate with various concentrations of the compounds (0, 1.56, 3.13, 6.25, 12.5, 25, 50, 100 µM), […]. After 24 h, 20 µL of Methyl-thiazolyldiphenyl-tetrazolium bromide (MTT, 5 mg/mL, Thermo Fisher Scientific) was added to each well and incubated for a minimum of 4 h. Following the incubation, the medium containing the compounds and MTT was removed from each well, and 200 µL of dimethyl sulfoxide (DMSO) was added. The plates were then shaken for 10 min at 37°C to dissolve the formazan crystals. The absorbance was measured using a microplate reader (BioTek Synergy 4) at a wavelength of 490 nm.

T1 sequence (P00533 25-1210): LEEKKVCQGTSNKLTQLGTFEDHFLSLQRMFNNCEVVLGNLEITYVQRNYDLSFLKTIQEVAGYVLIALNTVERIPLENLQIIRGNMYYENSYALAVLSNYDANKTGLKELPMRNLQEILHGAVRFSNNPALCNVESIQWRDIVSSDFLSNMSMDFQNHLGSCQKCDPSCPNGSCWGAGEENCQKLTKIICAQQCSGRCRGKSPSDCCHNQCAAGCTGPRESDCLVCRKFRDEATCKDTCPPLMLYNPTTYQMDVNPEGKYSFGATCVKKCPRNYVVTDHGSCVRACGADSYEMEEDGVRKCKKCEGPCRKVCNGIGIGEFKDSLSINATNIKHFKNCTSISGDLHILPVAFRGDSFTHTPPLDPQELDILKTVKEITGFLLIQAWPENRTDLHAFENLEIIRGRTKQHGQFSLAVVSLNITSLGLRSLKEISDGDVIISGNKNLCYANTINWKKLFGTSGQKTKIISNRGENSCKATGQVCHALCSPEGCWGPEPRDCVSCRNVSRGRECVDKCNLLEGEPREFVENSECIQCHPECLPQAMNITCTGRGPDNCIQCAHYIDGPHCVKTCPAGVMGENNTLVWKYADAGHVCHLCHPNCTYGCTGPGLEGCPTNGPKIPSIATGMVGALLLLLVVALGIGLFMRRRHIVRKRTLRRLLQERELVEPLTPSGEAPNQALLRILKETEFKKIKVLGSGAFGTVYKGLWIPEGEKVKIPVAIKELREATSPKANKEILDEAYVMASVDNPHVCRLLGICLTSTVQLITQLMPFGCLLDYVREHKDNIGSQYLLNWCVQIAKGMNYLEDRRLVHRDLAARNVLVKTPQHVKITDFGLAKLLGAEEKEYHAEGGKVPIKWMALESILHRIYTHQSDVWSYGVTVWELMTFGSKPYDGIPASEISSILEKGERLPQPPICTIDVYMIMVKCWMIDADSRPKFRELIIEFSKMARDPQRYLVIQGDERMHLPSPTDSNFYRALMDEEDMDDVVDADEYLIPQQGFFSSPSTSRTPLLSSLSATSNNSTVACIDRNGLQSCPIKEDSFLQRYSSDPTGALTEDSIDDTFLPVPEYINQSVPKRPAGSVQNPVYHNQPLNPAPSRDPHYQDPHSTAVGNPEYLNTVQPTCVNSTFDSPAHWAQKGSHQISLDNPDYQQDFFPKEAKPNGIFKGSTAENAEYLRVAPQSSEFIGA
Chain of EGFR intracellular kinase domain (P00533 712-979 limits assumed): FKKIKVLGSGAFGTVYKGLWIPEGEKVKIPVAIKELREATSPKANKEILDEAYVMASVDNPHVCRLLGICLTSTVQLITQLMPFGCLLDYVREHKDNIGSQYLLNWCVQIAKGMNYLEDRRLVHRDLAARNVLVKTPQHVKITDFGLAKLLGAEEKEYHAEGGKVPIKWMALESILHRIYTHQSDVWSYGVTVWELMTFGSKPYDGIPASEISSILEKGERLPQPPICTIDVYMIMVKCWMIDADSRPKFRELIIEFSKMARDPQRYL

Structure (SMILES): COC(=O)C/C(C)=C/C(=O)O[C@@H]1C[C@@H](C)[C@H]2[C@@H](C=C[C@H](CC(C)C)[C@]2(C)C(=O)/C=C\O)[C@@H]1O [Tandyukisin]
- BAX WB Gray Value (BAX; 5 µM): 19561.731
- BAX WB Normalized (BAX; 5 µM): 0.4461
- BAX WB Gray Value (BAX; 10 µM): 48768.744
- BAX WB Normalized (BAX; 10 µM): 1.12
- BAX WB Gray Value (BAX; 20 µM): 33049.489
- BAX WB Normalized (BAX; 20 µM): 0.9664
- Kd [1]: 5.57 µM
- kon ([1]; Figure 4A-B, read-out: ka, EGFR kinase domain): 3050 M⁻¹ s⁻¹
- Cleaved Caspase-3 WB Gray Value (Cleaved Caspase-3; 5 µM): 17172.004
- Cleaved Caspase-3 WB Normalized (Cleaved Caspase-3; 5 µM): 0.3916
- Cleaved Caspase-3 WB Gray Value (Cleaved Caspase-3; 10 µM): 22734.418
- Cleaved Caspase-3 WB Normalized (Cleaved Caspase-3; 10 µM): 0.5222
- Cleaved Caspase-3 WB Gray Value (Cleaved Caspase-3; 20 µM): 173083.238
- Cleaved Caspase-3 WB Normalized (Cleaved Caspase-3; 20 µM): 5.061
- expression level of cleaved caspase-3 protein (Cleaved Caspase-3; MCF-7, upon treatment): increased
- percentage of cells in G0/G1 phase (MCF-7 cells): 85.67%
- CETSA WB Gray Value (Figure 3F) (EGFR; 5 µM): 29078.924
- CETSA WB Normalized (Figure 3F) (EGFR; 5 µM): 0.7019
- CETSA WB Gray Value (Figure 3F) (EGFR; 10 µM): 31150.702
- CETSA WB Normalized (Figure 3F) (EGFR; 10 µM): 0.8063
- CETSA WB Gray Value (Figure 3F) (EGFR; 20 µM): 42106.53
- CETSA WB Normalized (Figure 3F) (EGFR; 20 µM): 1.166
- accumulation of EGFR in the soluble fraction (CETSA) compared with DMSO control (EGFR; MCF-7, 5, 10, 20 μM, 24 h, heated): markable increase
- cell lethality percentage (A431 cells): 67.3% ± 2.7%
